Measurements taken from patent US11319322B2, “Substituted aryl ether compound, preparation method thereof, pharmaceutical composition and use thereof” (Xiamen University, priority 2017, dated 2022).

Tests used:
Format in all cases: cell-based
[1] = target: T1, CCDC6-RET-BaF3 (Homo sapiens, UniProt P07949); assay: Growth inhibition of CCDC6-RET-BaF3 cells stably transfected with kinase (MTS); details: 48 h, read-out: CCDC6-RET (IC50/nM)
T1 construct: fused on or other part: Q16204 (Coiled-coil domain-containing protein 6)
Summary of the method: (§1)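 BaF3 cells stably expressing CCDC6-RET or KIF5B-RET, or parental BaF3, 2×10^4 cells/well, treated 48 h at 37 °C with 8-point 1:3 dilutions from 10 μM (0.1% DMSO). MTS/PES added 1–4 h, OD490 read; inhibition versus DMSO and blank gave IC50.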

[2] = target: T2, KIF5B-RET-BaF3 (Homo sapiens, UniProt P07949); assay: Growth inhibition of KIF5B-RET-BaF3 cells stably transfected with kinase (MTS); details: 48 h, read-out: KIF5B-RET (IC50/nM)
T2 construct: fused on or other part: P33176 (Kinesin-1 heavy chain)
Summary of the method: as §1

[3] = system: wild-type BaF3; assay: Growth inhibition of wild-type BaF3 cells, broad-spectrum toxicity (MTS); details: Mus musculus, 48 h, read-out: WT Ba/F3 (IC50/nM)
Experimental: Growth inhibitory activity of compounds on cell lines stably transfected with kinase
The activity of compounds against kinase RET is evaluated by their effect of inhibiting growth of cell lines stably transfected with kinase CCDC6-RET-BaF3, KIF5B-RET-BaF3, and wild-type BaF3 (Proc. Natl. Acad. Sci. USA., 2006, 103, 3153-8.). The growth of the cell lines stably transfected with kinase CCDC6-RET-BaF3, KIF5B-RET-BaF3 depends on their kinase activity. If a compound can inhibit the activity of the kinase RET per se or the activity of the RET signaling pathway, the compound can inhibit the growth of BaF3 cells stably transfected with kinase. […] Therefore, a larger ratio between IC50 of a compound to wild-type BaF3 and IC50 of the compound to the cell lines stably transfected with kinase CCDC6-RET-BaF3, KIF5B-RET-BaF3 indicates better targeting.
The specific test method is given as follows:
1) Medium: DMEM (Dulbecco's modified eagle medium) or RPMI 1640 (containing 10% fetal bovine serum, 100 μg/mL ampicillin, 100 μg/mL streptomycin).
2) Reagents: MTS reaction solution (containing 2 mg/mL of MTS [3-(4,5-dimethylthiazol-2-yl)-5-(3-carboxymethoxyphenyl)-2-(4-sulfophenyl)-2H-tetrazolium, inner Salt]; 100 μg/mL PES (phenazine […])).
3) Compound test: cells stably transfected with kinase (CCDC6-RET-BaF3, KIF5B-RET-BaF3) or wild-type BaF3 cells (2×10^4 cells/well) were incubated into a 96-well culture plate, the volume of cell culture fluid was 90 μL, and then 10 μL of the compound at each gradient concentration was added (the highest concentration was 10 μM, which was diluted stepwise by ⅓, and 8 concentration points were set in total; the system contained 0.1% DMSO (dimethyl sulfoxide)). The cell plate with uniformly mixed compound was cultured in a cell culture incubator (37° C.; 5% CO2) for 48 h, then 20 μL of MTS reaction solution was added, uniformly mixed and incubated in the cell culture incubator (37° C.; 5% CO2) for 1-4 hr, OD values at 490 nm were measured by a microplate reader (VARIOSKAN FLASH, Thermo). Three parallels were set in each group of experiments, with 0.1% (a final concentration) DMSO as a negative control, and a medium without cells or compounds as a blank control. The cell growth inhibition rate was calculated by the following formula: Cell growth inhibition rate %=1−(ODexperimental group−ODblank group)/(ODnegative group−ODblank group)×100%
4) IC50 calculation: The semi-inhibitory concentration of the compound acting on cell growth was calculated using GradPad Prism 5 software according to the measured cell growth inhibition rate.

T2 sequence (P07949 whole entry, change not shown, the tested form may be a part): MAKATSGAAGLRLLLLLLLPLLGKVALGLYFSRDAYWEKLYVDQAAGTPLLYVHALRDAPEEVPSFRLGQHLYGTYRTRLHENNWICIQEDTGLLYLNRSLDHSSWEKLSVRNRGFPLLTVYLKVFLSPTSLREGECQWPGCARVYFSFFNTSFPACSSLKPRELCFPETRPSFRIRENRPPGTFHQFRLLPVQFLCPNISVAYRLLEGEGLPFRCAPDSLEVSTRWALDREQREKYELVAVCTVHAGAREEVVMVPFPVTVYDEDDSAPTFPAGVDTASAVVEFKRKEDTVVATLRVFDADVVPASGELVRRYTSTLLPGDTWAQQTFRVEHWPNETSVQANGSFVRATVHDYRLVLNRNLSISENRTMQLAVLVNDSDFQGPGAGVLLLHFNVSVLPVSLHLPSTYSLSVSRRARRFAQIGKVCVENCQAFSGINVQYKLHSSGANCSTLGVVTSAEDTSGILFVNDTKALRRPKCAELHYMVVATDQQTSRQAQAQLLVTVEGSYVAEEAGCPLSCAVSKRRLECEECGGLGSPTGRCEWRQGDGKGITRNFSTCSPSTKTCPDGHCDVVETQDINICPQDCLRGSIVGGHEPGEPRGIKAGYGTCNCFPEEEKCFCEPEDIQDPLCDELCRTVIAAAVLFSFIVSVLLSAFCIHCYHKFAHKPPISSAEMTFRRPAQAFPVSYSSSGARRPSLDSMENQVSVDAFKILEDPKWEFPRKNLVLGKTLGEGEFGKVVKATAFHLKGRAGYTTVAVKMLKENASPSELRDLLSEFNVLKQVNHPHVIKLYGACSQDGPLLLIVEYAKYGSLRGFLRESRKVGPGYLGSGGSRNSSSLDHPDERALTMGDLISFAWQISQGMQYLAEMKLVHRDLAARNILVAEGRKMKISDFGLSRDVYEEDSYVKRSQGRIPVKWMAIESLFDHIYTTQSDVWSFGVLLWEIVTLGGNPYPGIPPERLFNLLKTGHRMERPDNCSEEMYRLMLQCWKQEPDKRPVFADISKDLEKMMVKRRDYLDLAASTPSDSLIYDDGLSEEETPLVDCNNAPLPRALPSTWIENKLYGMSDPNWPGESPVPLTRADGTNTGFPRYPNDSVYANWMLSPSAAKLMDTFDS
T1 sequence (P07949 whole entry, change not shown, the tested form may be a part): as above

GI50 [1] | GI50 [2] | SMILES | IC50 [3]
1490 nM | 1920 nM | CN1CCN(Cc2ccc(C(=O)Nc3cc(Oc4nc(-c5ccoc5)nc5cc[nH]c45)ccc3Cl)cc2C(F)(F)F)CC1 [III-k-5] | 4360 nM
990 nM | 1010 nM | CN1CCN(Cc2ccc(C(=O)Nc3cc(Oc4nc(-c5ccoc5)nc5ccn(C)c45)ccc3Cl)cc2C(F)(F)F)CC1 [III-k-6] | 2470 nM
2960 nM | 1900 nM | CN1CCN(Cc2ccc(C(=O)Nc3cc(Oc4nc(-c5ccsc5)nc5cc[nH]c45)ccc3Cl)cc2C(F)(F)F)CC1 [III-k-7] | 3720 nM
3460 nM | 3580 nM | CN1CCN(Cc2ccc(C(=O)Nc3cc(Oc4nc(-c5ccsc5)nc5ccn(C)c45)ccc3Cl)cc2C(F)(F)F)CC1 [III-k-8] | 3990 nM
1190 nM | 1490 nM | CN1CCN(Cc2ccc(C(=O)Nc3cc(Oc4nc(-c5ccc(O)cc5)nc5cc[nH]c45)ccc3Cl)cc2C(F)(F)F)CC1 [III-k-9] | 1650 nM
2300 nM | 2440 nM | CN1CCN(Cc2ccc(C(=O)Nc3cc(Oc4nc(-c5ccc(O)cc5)nc5ccn(C)c45)ccc3Cl)cc2C(F)(F)F)CC1 [III-k-10] | 1440 nM
451 nM | 496 nM | CN1CCN(Cc2ccc(C(=O)Nc3cc(Oc4nc(-c5ccc(N)cc5)nc5cc[nH]c45)ccc3Cl)cc2C(F)(F)F)CC1 [III-k-11] | 1290 nM
1450 nM | 1550 nM | CN1CCN(Cc2ccc(C(=O)Nc3cc(Oc4nc(-c5ccc(Cl)cc5)nc5cc[nH]c45)ccc3Cl)cc2C(F)(F)F)CC1 [III-k-13] | 1600 nM
2090 nM | 3190 nM | Cc1ccc(-c2nc(Oc3ccc(Cl)c(NC(=O)c4ccc(CN5CCN(C)CC5)c(C(F)(F)F)c4)c3)c3c(ccn3C)n2)cc1 [III-k-16] | 3630 nM
1410 nM | 2610 nM | CN1CCN(Cc2ccc(C(=O)Nc3cc(Oc4nc(-c5ccccc5)nc5cc[nH]c45)ccc3Cl)cc2C(F)(F)F)CC1 [III-k-17] | 2630 nM
4120 nM | 3990 nM | CN1CCN(Cc2ccc(C(=O)Nc3cc(Oc4nc(-c5ccccc5)nc5ccn(C)c45)ccc3Cl)cc2C(F)(F)F)CC1 [III-k-18] | 3890 nM
2710 nM | 2410 nM | Cc1ccc(C(=O)Nc2ccc(CN3CCN(C)CC3)c(C(F)(F)F)c2)cc1Oc1nc(-c2ccccc2)nc2cc[nH]c12 [III-m-3] | 3100 nM
2720 nM | 3860 nM | Cc1ccc(-c2nc(Oc3cc(C(=O)Nc4ccc(CN5CCN(C)CC5)c(C(F)(F)F)c4)ccc3C)c3[nH]ccc3n2)cc1 [III-m-4] | 3460 nM
3760 nM | 4040 nM | Cc1ccc(C(=O)Nc2ccc(CN3CCN(C)CC3)c(C(F)(F)F)c2)cc1Oc1nc(-c2cccc(Cl)c2)nc2cc[nH]c12 [III-m-5] | 3920 nM
3770 nM | 3950 nM | Cc1ccc(C(=O)Nc2ccc(CN3CCN(C)CC3)c(C(F)(F)F)c2)cc1Oc1nc(-c2ccc(Cl)cc2)nc2cc[nH]c12 [III-m-6] | 2790 nM
1410 nM | 2350 nM | Cc1ccc(C(=O)Nc2ccc(CN3CCN(C)CC3)c(C(F)(F)F)c2)cc1Oc1nc(-c2cccc(O)c2)nc2cc[nH]c12 [III-m-7] | 4330 nM
1240 nM | 1710 nM | Cc1ccc(C(=O)Nc2ccc(CN3CCN(C)CC3)c(C(F)(F)F)c2)cc1Oc1nc(-c2ccoc2)nc2cc[nH]c12 [III-m-8] | 4100 nM
1250 nM | 3050 nM | Cc1ccc(C(=O)Nc2ccc(CN3CCN(C)CC3)c(C(F)(F)F)c2)cc1Oc1nc(-c2cccnc2)nc2ccn(C)c12 [III-m-9] | 1440 nM
544 nM | 1050 nM | Cc1ccc(C(=O)Nc2ccc(CN3CCN(C)CC3)c(C(F)(F)F)c2)cc1Oc1nc(-c2ccncc2)nc2ccn(C)c12 [III-m-10] | 623 nM
